Results taken from patent US11072585B2 (PharmAkea, Inc., priority 2015, dated 2021).
Where a name gives a salt, the structure may show the parent alone.

Target: human LOXL2 (Homo sapiens (Human), UniProt Q9Y4K0)
Test: Human LOXL2 amine oxidase activity assay (Amplex Red)
Type: biochemical
Conditions: concentrated conditioned media from CHO cells stably expressing human LOXL2; 2 h at 37° C. with compound; DAP substrate
Method: Example B-1: Human LOXL2 Amine Oxidase Activity Assay
LOXL2 amine oxidase activity is evaluated by measuring Amplex Red fluorescence using 10-20× concentrated conditioned media from CHO cells stably expressing human LOXL2. To assay for amine oxidase activity, 10 μL of the concentrated conditioned media is incubated with 2 μL of test compound in DMSO and 73 μL Assay Buffer (50 mM Borate Buffer, pH8) for 2 h at 37° C. After the 2 h incubation, 5 ul of 10 mM 1,5-Diaminopentane (DAP) diluted in Assay Buffer and 10 μl of Amplex Red Mix (8.5 μl Assay Buffer+0.5 μl of 10 mM Amplex Red+1 μl of 500 U/ml Horseradish Peroxidase) are added and the plate mixed and immediately placed on the FlexStaion for fluorescence measurements. Fluorescence is read in kinetic mode every 2 min for 1 hour at excitation=544 and emission=590. The amine oxidase activity is calculated from the slope of the linear portion of the curve.

Sequence of human LOXL2 (Q9Y4K0 26-774): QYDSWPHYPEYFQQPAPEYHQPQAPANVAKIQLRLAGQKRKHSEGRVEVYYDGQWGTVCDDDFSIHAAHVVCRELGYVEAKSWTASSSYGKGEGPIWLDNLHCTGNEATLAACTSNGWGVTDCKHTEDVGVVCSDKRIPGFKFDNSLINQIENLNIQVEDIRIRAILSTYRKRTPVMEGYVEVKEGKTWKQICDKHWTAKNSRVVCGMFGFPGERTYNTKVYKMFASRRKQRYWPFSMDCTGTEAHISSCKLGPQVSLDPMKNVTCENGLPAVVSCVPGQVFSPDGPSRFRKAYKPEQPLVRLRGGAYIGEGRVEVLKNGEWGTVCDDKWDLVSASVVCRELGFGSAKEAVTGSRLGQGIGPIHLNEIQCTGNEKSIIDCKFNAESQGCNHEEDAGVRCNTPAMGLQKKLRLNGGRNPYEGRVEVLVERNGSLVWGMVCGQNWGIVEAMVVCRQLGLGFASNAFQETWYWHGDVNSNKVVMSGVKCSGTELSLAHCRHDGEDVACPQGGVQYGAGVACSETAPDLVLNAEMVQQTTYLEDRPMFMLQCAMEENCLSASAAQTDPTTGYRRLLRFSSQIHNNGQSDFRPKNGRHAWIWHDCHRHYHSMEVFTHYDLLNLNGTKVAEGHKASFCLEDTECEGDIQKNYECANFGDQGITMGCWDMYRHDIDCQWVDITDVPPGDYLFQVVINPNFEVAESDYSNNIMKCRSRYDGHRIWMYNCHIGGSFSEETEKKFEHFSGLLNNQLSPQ

| SMILES | IC50 |
| --- | --- |
| NCc1cc(Oc2cccc(C(=O)N3CCC(CO)CC3)c2)nc(C(F)(F)F)c1 [Compound 1-204, (3-((4-(Aminomethyl)-6-(trifluoromethyl)pyridin-2-yl)oxy)phenyl)(4-(hydroxymethyl)piperidin-1-yl)methanone hydrochloride] | < 300 nM |
| COCC1CN(C(=O)c2cccc(Oc3cc(CN)cc(C(F)(F)F)n3)c2)C1 [Compound 1-206, (3-((4-(Aminomethyl)-6-(trifluoromethyl)pyridin-2-yl)oxy)phenyl)(3-(methoxymethyl)azetidin-1-yl)methanone hydrochloride] | < 300 nM |
| CS(=O)(=O)OC1CN(C(=O)c2cccc(Oc3cc(CN)cc(C(F)(F)F)n3)c2)CC1F (centres unmarked) [Compound 1-214, hydrochloride] | < 300 nM |
| NCc1cc(Oc2cccc(C(=O)N[C@H]3COCC[C@@H]3O)c2)nc(C(F)(F)F)c1 [Compound 1-208, 3-((4-(Aminomethyl)-6-(trifluoromethyl)pyridin-2-yl)oxy)-N-((3S,4S)-4-hydroxytetrahydro-2H-pyran-3-yl)benzamide hydrochloride] | < 300 nM |
| N#CC1CN(C(=O)c2cccc(Oc3cc(CN)cc(C(F)(F)F)n3)c2)C1 [Compound 1-199, 1-(3-((4-(Aminomethyl)-6-(trifluoromethyl)pyridin-2-yl)oxy)benzoyl)azetidine-3-carbonitrile trifluoroacetate] | < 300 nM |
| NCc1cc(Oc2cc(C(=O)N3C[C@@H](O)[C@H](F)C3)ccc2O)nc(C(F)(F)F)c1 (racemic) [Compound 1-229, Racemic-trans-(3-((4-(aminomethyl)-6-(trifluoromethyl)pyridin-2-yl)oxy)-4-hydroxyphenyl)(3-fluoro-4-hydroxypyrrolidin-1-yl)methanone hydrochloride] | 300 to 1000 nM |
| NCc1cc(Oc2cccc(COc3ccccc3)c2)nc(C(F)(F)F)c1 [Compound 1-4, (2-(3-(Phenoxymethyl)phenoxy)-6-(trifluoromethyl)pyridin-4-yl)methanamine trifluoroacetate] | < 300 nM |
| NCc1cc(Oc2cccc(C(=O)Nc3cncnc3)c2)nc(C(F)(F)F)c1 [Compound 1-226, 3-((4-(Aminomethyl)-6-(trifluoromethyl)pyridin-2-yl)oxy)-N-(pyrimidin-5-yl)benzamide hydrochloride] | < 300 nM |
| NCc1cc(O[C@H]2CCCN(C(=O)c3cncnc3)C2)nc(C(F)(F)F)c1 [Compound 1-50, (S)-(3-((4-(Aminomethyl)-6-(trifluoromethyl)pyridin-2-yl)oxy)piperidin-1-yl)(pyrimidin-5-yl)methanone trifluoroacetate] | < 300 nM |
| NCc1cc(Oc2cccc(C(=O)NCC3(O)CCC3)c2)nc(C(F)(F)F)c1 [Compound 1-201, 3-((4-(Aminomethyl)-6-(trifluoromethyl)pyridin-2-yl)oxy)-N-((1-hydroxycyclobutyl)methyl)benzamide hydrochloride] | < 300 nM |
| NCc1cc(Oc2cccc(C(=O)NCCN3CCOC3=O)c2)nc(C(F)(F)F)c1 [Compound 1-28, 3-((4-(Aminomethyl)-6-(trifluoromethyl)pyridin-2-yl)oxy)-N-(2-(2-oxooxazolidin-3-yl)ethyl)benzamide] | < 300 nM |
| NCc1cc(Oc2cccc(C(=O)NO)c2)nc(C(F)(F)F)c1 [Compound 1-218, 3-((4-(Aminomethyl)-6-(trifluoromethyl)pyridin-2-yl)oxy)-N-hydroxybenzamide hydrochloride] | 300 to 1000 nM |
| NCc1cc(Oc2cccc3c2ccn3CC(=O)N2CCNCC2)nc(C(F)(F)F)c1 [Compound 1-233, 2-(4-((4-(Aminomethyl)-6-(trifluoromethyl)pyridin-2-yl)oxy)-1H-indol-1-yl)-1-(piperazin-1-yl)ethan-1-one dihydrochloride] | 300 to 1000 nM |
| NCc1cc(O[C@H]2CCCN(C(=O)Cc3ccccc3)C2)nc(C(F)(F)F)c1 [Compound 1-46, (S)-1-(3-((4-(Aminomethyl)-6-(trifluoromethyl)pyridin-2-yl)oxy)piperidin-1-yl)-2-phenylethanone trifluoroacetate] | < 300 nM |
| NCc1cc(Oc2cccc(-n3ccccc3=O)c2)nc(C(F)(F)F)c1 [Compound 1-169, 1-(3-((4-(Aminomethyl)-6-(trifluoromethyl)pyridin-2-yl)oxy)phenyl)pyridin-2(1H)-one] | < 300 nM |
| NCc1cc(Oc2cccc(C(=O)NCCn3cncn3)c2)nc(C(F)(F)F)c1 [Compound 1-14, N-(2-(1H-1,2,4-Triazol-1-yl)ethyl)-3-((4-(aminomethyl)-6-(trifluoromethyl)pyridin-2-yl)oxy)benzamide hydrochloride] | < 300 nM |

| SMILES | IC50 |
| --- | --- |
| NCc1cc(Oc2cccc(C(=O)NCCCCc3cn(-c4ccccc4)nn3)c2)nc(C(F)(F)F)c1 [Compound 1-217, 3-((4-(Aminomethyl)-6-(trifluoromethyl)pyridin-2-yl)oxy)-N-(4-(1-phenyl-1H-1,2,3-triazol-4-yl)butyl)benzamide hydrochloride] | < 300 nM |
| NCc1cc(O[C@H]2CCCN(C(=O)c3cc(=O)c4ccccc4o3)C2)nc(C(F)(F)F)c1 [Compound 1-48, (S)-2-(3-((4-(Aminomethyl)-6-(trifluoromethyl)pyridin-2-yl)oxy)piperidine-1-carbonyl)-4H-chromen-4-one trifluoroacetate] | < 300 nM |
| NCc1cc(Oc2cccc(C(=O)NCc3cc4ccccc4s3)c2)nc(C(F)(F)F)c1 [Compound 1-10, 3-((4-(Aminomethyl)-6-(trifluoromethyl)pyridin-2-yl)oxy)-N-(benzo[b]thiophen-2-ylmethyl)benzamide hydrochloride] | < 300 nM |
| NCc1cc(Oc2cccc(C(=O)NC3(CO)CC3)c2)nc(C(F)(F)F)c1 [Compound 1-31, 3-((4-(Aminomethyl)-6-(trifluoromethyl)pyridin-2-yl)oxy)-N-(1-(hydroxymethyl)cyclopropyl)benzamide hydrochloride] | < 300 nM |
| CC(C)C(=O)N1CCC[C@H](Oc2cc(CN)cc(C(F)(F)F)n2)C1 [Compound 1-52, (S)-1-(3-((4-(Aminomethyl)-6-(trifluoromethyl)pyridin-2-yl)oxy)piperidin-1-yl)-2-methylpropan-1-one trifluoroacetate] | < 300 nM |
| NCc1cc(Oc2cccc(C(=O)Nc3ccccc3N)c2)nc(C(F)(F)F)c1 [Compound 1-225, 3-((4-(Aminomethyl)-6-(trifluoromethyl)pyridin-2-yl)oxy)-N-(2-aminophenyl)benzamide hydrochloride] | < 300 nM |
| NCc1cc(Oc2cccc3c2ccn3CC(=O)N2CCCCC2)nc(C(F)(F)F)c1 [Compound 1-56, 2-(4-((4-(Aminomethyl)-6-(trifluoromethyl)pyridin-2-yl)oxy)-1H-indol-1-yl)-1-(piperidin-1-yl)ethanone] | 300 to 1000 nM |
| NCc1cc(Oc2cccc(C(=O)N3CCC4(CC3)CNC(=O)O4)c2)nc(C(F)(F)F)c1 [Compound 1-27, 8-(3-((4-(Aminomethyl)-6-(trifluoromethyl)pyridin-2-yl)oxy)benzoyl)-1-oxa-3,8-diazaspiro[4.5]decan-2-one hydrochloride] | < 300 nM |
| NCc1cc(Oc2cccc(-c3cn[nH]c3)c2)nc(C(F)(F)F)c1 [Compound 1-6, (2-(3-(1H-Pyrazol-4-yl)phenoxy)-6-(trifluoromethyl)pyridin-4-yl)methanamine trifluoroacetate] | < 300 nM |
| NCc1cc(Oc2cccc(C(=O)NCCO)c2)nc(C(F)(F)F)c1 [Compound 1-16, 3-((4-(Aminomethyl)-6-(trifluoromethyl)pyridin-2-yl)oxy)-N-(2-hydroxyethyl)benzamide hydrochloride] | < 300 nM |
| CN(C)[C@@H]1CN(C(=O)c2cccc(Oc3cc(CN)cc(C(F)(F)F)n3)c2)C[C@H]1O (racemic) [Compound 1-23, Racemic-trans-(3-((4-(aminomethyl)-6-(trifluoromethyl)pyridin-2-yl)oxy)phenyl)(-3-(dimethylamino)-4-hydroxypyrrolidin-1-yl)methanone hydrochloride] | < 300 nM |
| CCOC(=O)CN1C(=O)CCc2c(Oc3cc(CN)cc(C(F)(F)F)n3)cccc21 [Compound 1-235, Ethyl 2-(5-((4-(aminomethyl)-6-(trifluoromethyl)pyridin-2-yl)oxy)-2-oxo-3,4-dihydroquinolin-1(2H)-yl)acetate] | 300 to 1000 nM |
| NCc1cc(Oc2cccc(C(=O)Nc3nnco3)c2)nc(C(F)(F)F)c1 [Compound 1-228, 3-((4-(Aminomethyl)-6-(trifluoromethyl)pyridin-2-yl)oxy)-N-(1,3,4-oxadiazol-2-yl)benzamide hydrochloride] | < 300 nM |
| NCc1cc(Oc2cc(C(=O)N3C[C@@H](O)[C@H](F)C3)ccc2OCc2ccccc2)nc(C(F)(F)F)c1 (racemic) [Compound 1-231, Racemic-trans-(3-((4-(aminomethyl)-6-(trifluoromethyl)pyridin-2-yl)oxy)-4-(benzyloxy)phenyl)(3-fluoro-4-hydroxypyrrolidin-1-yl)methanone] | < 300 nM |
| NCc1cc(Oc2cncc(C(=O)N3CC[C@@H](N)C3)c2)nc(C(F)(F)F)c1 [Compound 1-54, (R)-(5-((4-(Aminomethyl)-6-(trifluoromethyl)pyridin-2-yl)oxy)pyridin-3-yl)(3-aminopyrrolidin-1-yl)methanone dihydrochloride] | < 300 nM |
| CN(C)CCNC(=O)c1cccc(Oc2cc(CN)cc(C(F)(F)F)n2)c1 [Compound 1-35, 3-((4-(Aminomethyl)-6-(trifluoromethyl)pyridin-2-yl)oxy)-N-(2-(dimethylamino)ethyl)benzamide dihydrochloride] | < 300 nM |
